Reference: the NIST ThermoML archive (doi:10.1021/acs.jced.6b00458)
Numbers after ± are expanded uncertainties.

Assay: mn = molality of the nth substance listed, in mol/kg
Settings: 100 kPa, Liquid, Vibrating tube method

[Cl-].[Na+] [sodium chloride] + O
mass density [kg/m3]
Settings | m1 = 0.1 | m1 = 0.2 | m1 = 0.3 | m1 = 0.4 | m1 = 0.5 | m1 = 0.6
293.15 K | 1002.42 ± 0.5 | 1006.57 ± 0.5 | 1010.63 ± 0.5 | 1014.73 ± 0.5 | 1018.78 ± 0.5 | 1022.6 ± 0.5
298.15 K | 1001.21 ± 0.5 | 1005.31 ± 0.5 | 1009.33 ± 0.5 | 1013.38 ± 0.5 | – | 1021.15 ± 0.5
303.15 K | 999.767 ± 0.5 | 1003.83 ± 0.5 | 1007.8 ± 0.5 | 1011.82 ± 0.5 | 1015.77 ± 0.5 | –
308.15 K | 998.116 ± 0.5 | 1002.14 ± 0.5 | 1006.08 ± 0.5 | 1010.07 ± 0.5 | – | 1017.71 ± 0.5
313.15 K | 996.272 ± 0.5 | 1000.27 ± 0.5 | 1004.18 ± 0.5 | 1008.14 ± 0.5 | 1012.04 ± 0.5 | 1015.73 ± 0.5
